Measured values from patent US10081632B2, “Substituted tetrahydropyrido[3′,2′:4,5]pyrrolo[1,2-α]pyrazine-2-carboxamides as RSK inhibitors” (Phoenix Molecular Designs, priority 2016, dated 2018).
Counter-ions that a name gives are not always drawn.

Key:
[1] = Solubility assessment, 20 mg/ml solution; type: physicochemical
Experimental: Solubility is an important property for therapeutic drug candidates. Poor solubility can lead to low bioavailability resulting in suboptimal drug delivery. It can also prevent the evaluation of test agents in animals because the concentration(s) needed to achieve the desired effect cannot be achieved to poor solubility. For solubility assessments, small molecules targeting RSK were compared. For these assessments, 100 mM solutions of the compounds dissolved in DMSO were diluted in DMEM growth media (Life Technologies) supplemented with fetal bovine serum (FBS, Life Technologies) and 100 units/ml penicillin and 100 units/ml streptomycin (Life Technologies) to make 20 mg/ml solutions. Once diluted, the solutions were vortexed and examined for the formation of precipitates. […] For Compound 26, a 100 mM solution of the compound dissolved in DMSO was diluted in phosphate buffered saline (Life Technologies) to make a 20 mg/ml solution. The stock of […] was chosen because this is the upper end of what would be required to dose mice for a range of studies including MTD, PK, PD and efficacy. The pH of this solution was determined to be 2, as previously described. […] At high concentrations some RSK inhibitors were highly soluble while others were not. Compound 0 is (R)—N-(1-benzyl-1H-pyrazol-4-yl)-9-methyl-6-oxo-6,7,8,9-tetrahydropyrido[3′,2′:4,5]pyrrolo[1,2-a]pyrazine-2-carboxamide. Compound 0 was not soluble, whereas Compounds 18, 20, 21, 25 and 26 were soluble under the same conditions (Table 5).

4T1 cells [2] = assay: Monolayer growth inhibition, Alamar blue assay; type: cell-based; conditions: Mus musculus; 4T1 (TNBC), 5 days, single dose on day 1
From the text: (§1) In all instances a single dose was given on day 1 of the experiment.

HCC1143 cells [3] = assay: Monolayer growth inhibition, Alamar blue assay; type: cell-based; conditions: Homo sapiens; HCC1143 (TNBC), 5 days, single dose on day 1
From the text: as §1

HCC1937 cells [4] = assay: Monolayer growth inhibition, Alamar blue assay; type: cell-based; conditions: Homo sapiens; HCC1937 (TNBC, BRCA Mutant), 5 days, single dose on day 1
From the text: as §1

JIMT-1 cells [5] = assay: Monolayer growth inhibition, Alamar blue assay; type: cell-based; conditions: Homo sapiens; JIMT-1 (HER2), 5 days, single dose on day 1
From the text: as §1

MDA-MB-231 cells [6] = assay: Monolayer growth inhibition, Alamar blue assay; type: cell-based; conditions: Homo sapiens; MDA-MB-231 (TNBC), 5 days, single dose on day 1
From the text: as §1

MDA-MB-435 cells [7] = assay: Monolayer growth inhibition, Alamar blue assay; type: cell-based; conditions: Homo sapiens; MDA-MB-435 (Melanoma), 5 days, single dose on day 1
From the text: as §1

MDA-MB-468 cells [8] = assay: Monolayer growth inhibition, Alamar blue assay; type: cell-based; conditions: Homo sapiens; MDA-MB-468 (TNBC), 5 days, single dose on day 1
From the text: as §1

PC3 cells [9] = assay: Monolayer growth inhibition, Alamar blue assay; type: cell-based; conditions: Homo sapiens, PC-3; PC3 (Prostate), 5 days, single dose on day 1
From the text: as §1

SUM149 cells [10] = assay: Monolayer growth inhibition, Alamar blue assay; type: cell-based; conditions: Homo sapiens; SUM149 (TNBC, BRCA Mutant), 5 days, single dose on day 1
From the text: as §1

SUM149-PTXR cells [11] = assay: Monolayer growth inhibition, Alamar blue assay; type: cell-based, Human; conditions: Homo sapiens; SUM149-PTXR (TNBC, BRCA Mutant), 5 days, single dose on day 1
From the text: as §1

T47D cells [12] = assay: Monolayer growth inhibition, Alamar blue assay; type: cell-based, Human; conditions: Homo sapiens; T47D (ER/PR), 5 days, single dose on day 1
From the text: as §1

All cell lines [13] = assay: Monolayer growth inhibition, Alamar blue assay, range over all cell lines; type: cell-based; conditions: 120 h; range of IC50 over all cell lines of the table; read-out: IC50 Values - Alamar Blue (5 Days), Range, All
From the text: as §1

HCC1937 cells [14] = assay: Monolayer growth inhibition, crystal violet assay; type: cell-based; conditions: Homo sapiens; HCC1937 (TNBC, BRCA Mutant), 5 days, single dose on day 1
From the text: (§2) In all instances a single dose was given on day 1 of the experiment. […] Complete (100%) growth suppression was achievable with several of the compounds in multiple different cell lines.

JIMT-1 cells [15] = assay: Monolayer growth inhibition, crystal violet assay; type: cell-based; conditions: Homo sapiens; JIMT-1 (HER2), 5 days, single dose on day 1
From the text: as §2

MDA-MB-468 cells [16] = assay: Monolayer growth inhibition, crystal violet assay; type: cell-based; conditions: Homo sapiens; MDA-MB-468 (TNBC), 5 days, single dose on day 1
From the text: as §2

T47D cells [17] = assay: Monolayer growth inhibition, crystal violet assay; type: cell-based; conditions: Homo sapiens; T47D (ER/PR), 5 days, single dose on day 1
From the text: as §2

4T1 cells [18] = assay: Monolayer growth inhibition, crystal violet assay; type: cell-based; conditions: Mus musculus; 4T1 (TNBC), 5 days, single dose on day 1
From the text: as §1

HCC1143 cells [19] = assay: Monolayer growth inhibition, crystal violet assay; type: cell-based; conditions: Homo sapiens; HCC1143 (TNBC), 5 days, single dose on day 1
From the text: as §1

MDA-MB-231 cells [20] = assay: Monolayer growth inhibition, crystal violet assay; type: cell-based; conditions: Homo sapiens; MDA-MB-231 (TNBC), 5 days, single dose on day 1
From the text: as §1

MDA-MB-435 cells [21] = assay: Monolayer growth inhibition, crystal violet assay; type: cell-based; conditions: Homo sapiens; MDA-MB-435 (Melanoma), 5 days, single dose on day 1
From the text: as §1

PC3 cells [22] = assay: Monolayer growth inhibition, crystal violet assay; type: cell-based; conditions: Homo sapiens, PC-3; PC3 (Prostate), 5 days, single dose on day 1
From the text: as §1

SUM149 cells [23] = assay: Monolayer growth inhibition, crystal violet assay; type: cell-based; conditions: Homo sapiens; SUM149 (TNBC, BRCA Mutant), 5 days, single dose on day 1
From the text: as §1

SUM149-PTXR cells [24] = assay: Monolayer growth inhibition, crystal violet assay; type: cell-based; conditions: Homo sapiens; SUM149-PTXR (TNBC, BRCA Mutant), 5 days, single dose on day 1
From the text: as §1

All cell lines [25] = assay: Monolayer growth inhibition, crystal violet assay, range over all cell lines; type: cell-based; conditions: 120 h; range of IC50 over all cell lines of the table; read-out: IC50 Values - Crystal Violet (5 Days), Range, All
From the text: as §2

MDA-MB-231 cells [26] = assay: Soft agar growth inhibition assay; type: cell-based; conditions: Homo sapiens; MDA-MB-231 (TNBC), 14-22 days; read-out: IC50 Values - Soft Agar (14-22 Days)
MDA-MB-468 cells [27] = assay: Soft agar growth inhibition assay; type: cell-based, Human; conditions: Homo sapiens; MDA-MB-468 (TNBC), 14-22 days
4T1 cells [28] = assay: Soft agar growth inhibition assay; type: cell-based; conditions: Mus musculus; 4T1 (TNBC), 14-22 days; read-out: IC50 Values - Soft Agar (14-22 Days)
Experimental: Two agar (Alfa Aesar) solutions (0.8% w/v and 0.4% w/v) were prepared in ultrapure water. The 0.8% agar solution was mixed in equal volumes with 2× media previously prepared from powder (Life Technologies) following the manufacturer's instructions and filter sterilized. The 0.8% agar and media solution was added to 24 well plates (Mandel Scientific) at 500 μl per well. The plates were placed in a humidified incubator at 37° C. with 5% CO2. Next, the 0.4% agar solution was mixed in equal volumes with 2× media. Breast cancer cell lines were added to this solution to achieve a final concentration of 2×10^4 cells per well and […] was added to each well on top of the bottom agar and media layer. […] The plates were returned to the incubator for 10-32 days, with a re-dosing of compounds or DMSO every 7 days. After 10-32 days, colonies were counted in 3 different fields of view for each well.
Representative compounds described herein were tested in the soft agar growth inhibition assay against the 4T1 breast cancer cell line.

[29] = tested on: phosphorylated Y-box binding protein-1 (YB-1) at serine 102 (P-YB-1S102); assay: Immunoblotting of cell signalling, loss of P-YB-1 in MDA-MB-231 cells; conditions: Homo sapiens, MDA-MB-231, read-out: IC50 values for P-YB-1
Experimental: Following desired experimental conditions, breast cancer cell lines grown and treated in 6 well plates or 100 mm culture dishes (Grenier Bio-One) were placed on ice and the supernatant from each well was removed and the cells were washed in cold PBS. Following removal of PBS, cells were exposed to radioimmunoprecipitation assay (RIPA) buffer (50 mM Tris-HCl (pH 8), 150 mM NaCl, 1% NP-40, 0.5% sodium deoxycholate, 0.1% SDS; Fisher Scientific) supplemented with 1% phosphatase inhibitor (Fisher Scientific) and 1% protease inhibitor (Fisher Scientific) for 10 minutes. Samples were transferred to eppendorf tubes, vortexed and then centrifuged at 14 000 rpm for 10 minutes. Supernatants were collected as whole cell lysates.
To begin, the protein content of the lysates was measured using the Bicinchoninic Acid (BCA) Protein Assay Kit (Pierce), which included a protein standard curve generated with bovine serum albumin. Appropriate volumes of samples and loading buffer (50 mM Tris-HCl (pH 6.8), 2% SDS, 10% glycerol, 1% j-mercaptoethanol, 12.5 mM EDTA, 0.02% bromophenol blue) were mixed, ensuring that equal amounts of protein were loaded. For the majority of experiments in this study, 30 μg of protein per well was loaded. Samples were then resolved on SDS-PAGE (polyacrylamide gel electrophoresis) using various percentages of acrylamide gels (8%-12%), depending on the proteins of interest. SDS-PAGE was run in SDS running buffer (25 mM Tris, 192 mM glycine, 0.1% SDS) and then transferred to nitrocellulose membranes (Bio-Rad) in transfer buffer (48 mM Tris, 39 mM glycine, 20% (v/v) methanol) at 100 volts for 90 minutes at room temperature. Immunoblots were then blocked in 5% skim milk in tris-buffered saline with 0.1% Tween-20 (TBS-T; 50 mM Tris-HCl, pH 7.5, 150 mM NaCl, 0.1% (v/v) Tween-20 (Fisher Scientific)) for 1 to 2 hours. Immunoblots were then incubated with selected primary antibodies diluted in TBS-T with 0.1% gelatin (Bio-Rad) and 0.05% sodium azide (Alfa Aesar) overnight. Following washes with TBT-T 4 times for 8 to 10 minutes, immunoblots were incubated with appropriate secondary antibodies conjugated to horseradish peroxidise (Cell Signalling Technology) diluted in TBS-T plus 5% skim milk at a ratio of 1:5000 for 2 hours at room temperature. After an additional round of washes in TBS-T, immunoblots were exposed to combined enhanced chemiluminescence (ECL) reagents (Fisher Scientific) for 1 minute and developed using ChemiDoc MP Imaging System (Bio-Rad). For certain immunoblots, bands of proteins of interest were scanned and band intensity ratios were determined by densitometric analysis (ImageJ). […] Total YB-1 was used as a loading control (1:5000 Abcam). […] To assess whether cells are actively undergoing cell death, the activity of poly ADP ribose polymerase (PARP) (1:1000 CST) was also measured using the immunoblotting method.

Row | IC50 (4T1 cells [2]) | IC50 (HCC1143 cells [3]) | IC50 (HCC1937 cells [4]) | IC50 (MDA-MB-231 cells [6]) | IC50 (MDA-MB-435 cells [7]) | IC50 (MDA-MB-468 cells [8]) | IC50 (PC3 cells [9]) | IC50 (HCC1937 cells [14]) | IC50 (MDA-MB-468 cells [16]) | IC50 (4T1 cells [18]) | IC50 (HCC1143 cells [19]) | IC50 (MDA-MB-231 cells [20]) | IC50 (MDA-MB-435 cells [21]) | IC50 (PC3 cells [22]) | Compound | IC50 (JIMT-1 cells [5]) | IC50 (SUM149 cells [10]) | IC50 (SUM149-PTXR cells [11]) | IC50 (All cell lines [13]) | IC50 (JIMT-1 cells [15]) | IC50 (SUM149 cells [23]) | also measured
1 | 0.5 ± 0.3 µM | 4.4 ± 1.9 µM | 9.2 ± 3.2 µM | 9.8 ± 3.1 µM | 5.6 ± 0.1 µM | 4.5 ± 2.3 µM | 12 ± 4.5 µM | 5.8 ± 0.4 µM | 3.3 ± 1.3 µM | 0.3 ± 0.1 µM | 5.8 ± 2.6 µM | 9.1 ± 1.3 µM | 5 ± 3.6 µM | 6.5 ± 2.8 µM | C[C@@H]1CNC(=O)c2c(Cl)c3ccc(C(=O)Nc4cnn(Cc5ccccc5)c4)nc3n21 [Compound 24, (R)—N-(1-benzyl-1H-pyrazol-4-yl)-5-chloro-9-methyl-6-oxo-6,7,8,9-tetrahydropyrido[3′,2′:4,5]pyrrolo[1,2-a]pyrazine-2-carboxamide] | 12.3 ± 5.9 µM | 1.1 ± 0.9 µM | 3.4 ± 2.1 µM | 0.5 to 12.3 µM | 7.5 ± 2.2 µM | 0.9 ± 0.3 µM | Solubility, 20 mg/ml Solution ([1]; 100 mM in DMSO diluted in DMEM growth media to 20 mg/ml): Precipitate; IC50 (T47D cells [12]): 4.5 ± 4.1 µM; IC50 (T47D cells [17]): 2.7 ± 2.1 µM; IC50 (SUM149-PTXR cells [24]): 4.5 ± 1.4 µM; IC50 (All cell lines [25]): 0.3 to 9.1 µM; IC50 (MDA-MB-231 cells [26]): 0.4 ± 0.2 µM; IC50 (MDA-MB-468 cells [27]): 2.5 ± 2 µM; IC50 (4T1 cells [28]): 0.7 ± 0.3 µM; IC50 [29]: 0.016 µM
2 | 6.2 ± 2.5 µM | 9.6 ± 6.1 µM | 5.6 ± 0.4 µM | 7.4 ± 1.7 µM | 3.9 ± 1.3 µM | 2.5 ± 0.7 µM | 1.9 ± 0.8 µM | 6.6 ± 1.6 µM | 1.7 ± 0.2 µM | 4.9 ± 1.1 µM | 7.3 ± 2.7 µM | 3.7 ± 1.8 µM | 1.6 ± 0.3 µM | 1.5 ± 0.5 µM | C[C@@H]1CNC(=O)c2cc3ccc(C(=O)Nc4cnn(Cc5ccc(CN)cc5)c4)nc3n21 [Compound 26, (R)—N-(1-(4-(aminomethyl)benzyl)-1H-pyrazol-4-yl)-9-methyl-6-oxo-6,7,8,9-tetrahydropyrido[3′,2′:4,5]pyrrolo[1,2-a]pyrazine-2-carboxamide hydrochloride salt] | 15.5 ± 6.6 µM | 9.8 ± 5.7 µM | 8.8 ± 2.5 µM | 1.9 to 15.5 µM | 12.3 ± 3.2 µM | 6.5 ± 4.4 µM | Solubility after addition of 4M NaOH ([1]; 20 mg/ml in PBS, pH equal to 9): remained in solution; Solubility, 20 mg/ml Solution ([1]; 100 mM in DMSO diluted in PBS to 20 mg/ml, hydrochloride salt): Soluble; pH of 20 mg/ml solution ([1]; DMSO stock diluted in PBS, pH test strips, hydrochloride salt): 2-9; IC50 (SUM149-PTXR cells [24]): 6.5 ± 2.1 µM; IC50 (All cell lines [25]): 1.5 to 12.3 µM; IC50 (MDA-MB-231 cells [26]): 0.2 ± 0.1 µM; IC50 (MDA-MB-468 cells [27]): 2 ± 0.2 µM; IC50 (4T1 cells [28]): 5.3 ± 1.3 µM; IC50 [29]: 0.047 µM
